Experiments:
[1] = target: GDP-bound NRAS wild-type protein (Homo sapiens, UniProt P01111); assay: Binding to NRAS by surface plasmon resonance (SPR), Single Cycle Kinetics; details: SPR; KD ratio class
[2] = target: GDP-bound HRAS wild-type protein (Homo sapiens, UniProt P01112); assay: Binding to HRAS by surface plasmon resonance (SPR), Single Cycle Kinetics; details: SPR; KD ratio class
[3] = system: human lung cancer strain NCI-H441; assay: cells; details: NCI-H441, 96 h, read-out: NCI-H441 IC50 (nM)

GDP-bound HRAS wild-type protein, sequence (P01112 whole entry): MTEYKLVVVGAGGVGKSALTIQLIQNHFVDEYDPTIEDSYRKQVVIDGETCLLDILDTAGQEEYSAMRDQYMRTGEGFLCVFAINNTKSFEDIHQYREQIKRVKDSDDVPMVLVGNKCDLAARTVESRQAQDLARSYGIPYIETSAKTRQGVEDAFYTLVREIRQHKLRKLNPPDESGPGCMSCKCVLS
GDP-bound NRAS wild-type protein, sequence (P01111 whole entry): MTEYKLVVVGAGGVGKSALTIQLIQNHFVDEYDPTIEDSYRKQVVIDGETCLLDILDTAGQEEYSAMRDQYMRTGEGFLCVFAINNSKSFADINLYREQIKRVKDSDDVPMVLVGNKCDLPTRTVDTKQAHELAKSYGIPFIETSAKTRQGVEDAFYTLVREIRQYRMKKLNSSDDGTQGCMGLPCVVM

Row | Compound | NRAS/KRAS (ratio of KD value for GDP-bound NRAS wild-type protein to KD value for KRAS) [1] | HRAS/KRAS (ratio of KD value for GDP-bound HRAS wild-type protein to KD value for KRAS) [2] | IC50 [3]
1 | CCO[C@@H]1C[C@H]2C(=O)NC3(CCCC3)C(=O)N(C)[C@@H](C3CCCC3)C(=O)N(C)[C@H](C(=O)N(C)C)CC(=O)N(C)[C@@H](C)C(=O)N[C@@H]([C@@H](C)CC)C(=O)N(C)CC(=O)N(C)[C@H]3C/C=C\CCN(C3=O)[C@@H](CC3CCCCC3)C(=O)N(C)CC(=O)N[C@@H](CCc3cc(F)c(C(F)(F)F)c(F)c3)C(=O)N2C1 [PP1470] | A (a compound having 10 or more and less than 20 is denoted as A) | A (a compound having 10 or more and less than 20 is denoted as A) | 111 nM
2 | CC[C@H](C)[C@@H]1NC(=O)[C@H](CC)N(C)C(=O)C[C@@H](C(=O)N(C)C)N(C)C(=O)[C@H](C2CCCC2)N(C)C(=O)C2(CCC2)NC(=O)[C@@H]2C[C@H](C)CN2C(=O)[C@H](CCc2cc(F)c(C(F)(F)F)c(F)c2)NC(=O)CN(C)C(=O)[C@H](CC2CCCCC2)N2CC/C=C\C[C@@H](C2=O)N(C)C(=O)CN(C)C1=O [PP1471] | A (a compound having 10 or more and less than 20 is denoted as A) | A (a compound having 10 or more and less than 20 is denoted as A) | 48.2 nM
3 | CCO[C@@H]1C[C@H]2C(=O)NC3(CCCC3)C(=O)N(C)[C@@H](C3CCCC3)C(=O)N(C)[C@H](C(=O)N(C)C)CC(=O)N(C)[C@@H](CC(C)C)C(=O)N[C@@H]([C@@H](C)CC)C(=O)N(C)CC(=O)N(C)[C@H]3C/C=C\CCN(C3=O)[C@@H](CC3CCCCC3)C(=O)N(C)CC(=O)N[C@@H](CCc3cc(F)c(C(F)(F)F)c(F)c3)C(=O)N2C1 [PP1473] | A (a compound having 10 or more and less than 20 is denoted as A) | A (a compound having 10 or more and less than 20 is denoted as A) | 36.6 nM
4 | CCO[C@@H]1C[C@H]2C(=O)NC3(CCC3)C(=O)N(C)[C@@H](C3CCCC3)C(=O)N(C)[C@H](C(=O)N(C)C)CC(=O)N(C)[C@@H](CC(C)(C)C)C(=O)N[C@@H]([C@@H](C)CC)C(=O)N(C)CC(=O)N(C)[C@H]3C/C=C\CCN(C3=O)[C@@H](CC3CCCCC3)C(=O)N(C)CC(=O)N[C@@H](CCc3cc(F)c(C(F)(F)F)c(F)c3)C(=O)N2C1 [PP1474] | A (a compound having 10 or more and less than 20 is denoted as A) | A (a compound having 10 or more and less than 20 is denoted as A) | 48.2 nM
5 | CC[C@H](C)[C@@H]1NC(=O)[C@H](CC)N(C)C(=O)C[C@@H](C(=O)N(C)C)N(C)C(=O)[C@H](C2CCCC2)N(C)C(=O)C2(CCC2)NC(=O)[C@@H]2CCCN2C(=O)[C@H](CCc2cc(F)c(C(F)(F)F)c(F)c2)NC(=O)CN(C)C(=O)[C@H](CC2CCCCC2)N2CC/C=C\C[C@@H](C2=O)N(C)C(=O)CN(C)C1=O [PP1475] | A (a compound having 10 or more and less than 20 is denoted as A) | A (a compound having 10 or more and less than 20 is denoted as A) | 48.9 nM
6 | CCO[C@@H]1C[C@H]2C(=O)NC3(CCC3)C(=O)N(C)[C@@H](C3CCCC3)C(=O)N(C)[C@H](C(=O)N(C)C)CC(=O)N(C)[C@@H](CC3CC3)C(=O)N[C@@H]([C@@H](C)CC)C(=O)N(C)CC(=O)N(C)[C@H]3C/C=C\CCN(C3=O)[C@@H](Cc3ccc(F)cc3C)C(=O)N(C)CC(=O)N[C@@H](CCc3ccc(Cl)c(Cl)c3)C(=O)N2C1 [PP1476] | A (a compound having 10 or more and less than 20 is denoted as A) | B (a compound having 3 or more and less than 10 is denoted as B) | 216 nM
7 | CCO[C@@H]1C[C@H]2C(=O)NC3(CCC3)C(=O)N(C)[C@@H](C3CCCC3)C(=O)N(C)[C@H](C(=O)N(C)C)CC(=O)N(C)[C@@H](CC3CC3)C(=O)N[C@@H]([C@@H](C)CC)C(=O)N(C)CC(=O)N(C)[C@H]3C/C=C\CCN(C3=O)[C@@H](Cc3ccc(F)cc3C)C(=O)N(C)CC(=O)N[C@@H](CCc3cc(F)c(Cl)c(F)c3)C(=O)N2C1 [PP1477] | A (a compound having 10 or more and less than 20 is denoted as A) | B (a compound having 3 or more and less than 10 is denoted as B) | 309 nM
8 | CCO[C@@H]1C[C@H]2C(=O)NC3(CCC3)C(=O)N(C)[C@@H](C3CCCC3)C(=O)N(C)[C@H](C(=O)N(C)C)CC(=O)N(C)[C@@H](CC3CC3)C(=O)N[C@@H]([C@@H](C)CC)C(=O)N(C)CC(=O)N(C)[C@H]3C/C=C\CCN(C3=O)[C@@H](Cc3ccc(F)cc3)C(=O)N(C)CC(=O)N[C@@H](CCc3ccc(Cl)c(Cl)c3)C(=O)N2C1 [PP1478] | A (a compound having 10 or more and less than 20 is denoted as A) | A (a compound having 10 or more and less than 20 is denoted as A) | 102 nM
9 | CCO[C@@H]1C[C@H]2C(=O)NC3(CCC3)C(=O)N(C)[C@@H](C3CCCC3)C(=O)N(C)[C@H](C(=O)N(C)C)CC(=O)N(C)[C@@H](CC3CC3)C(=O)N[C@@H]([C@@H](C)CC)C(=O)N(C)CC(=O)N(C)[C@H]3C/C=C\CCN(C3=O)[C@@H](Cc3ccc(F)cc3)C(=O)N(C)CC(=O)N[C@@H](CCc3cc(F)c(Cl)c(F)c3)C(=O)N2C1 [PP1479] | A (a compound having 10 or more and less than 20 is denoted as A) | B (a compound having 3 or more and less than 10 is denoted as B) | 140 nM
10 | CCO[C@@H]1C[C@H]2C(=O)NC3(CCC3)C(=O)N(C)[C@@H](C3CCCC3)C(=O)N(C)[C@H](C(=O)N(C)C)CC(=O)N(C)[C@@H](CC(C)C)C(=O)N[C@@H]([C@@H](C)CC)C(=O)N(C)CC(=O)N(C)[C@H]3C/C=C\CCN(C3=O)[C@@H](Cc3ccc(F)cc3C)C(=O)N(C)CC(=O)N[C@@H](CCc3ccc(Cl)c(Cl)c3)C(=O)N2C1 [PP1480] | A (a compound having 10 or more and less than 20 is denoted as A) | B (a compound having 3 or more and less than 10 is denoted as B) | 85.8 nM
11 | CCO[C@@H]1C[C@H]2C(=O)NC3(CCC3)C(=O)N(C)[C@@H](C3CCCC3)C(=O)N(C)[C@H](C(=O)N(C)C)CC(=O)N(C)[C@@H](CC(C)C)C(=O)N[C@@H]([C@@H](C)CC)C(=O)N(C)CC(=O)N(C)[C@H]3C/C=C\CCN(C3=O)[C@@H](Cc3ccc(F)cc3C)C(=O)N(C)CC(=O)N[C@@H](CCc3cc(F)c(Cl)c(F)c3)C(=O)N2C1 [PP1481] | A (a compound having 10 or more and less than 20 is denoted as A) | B (a compound having 3 or more and less than 10 is denoted as B) | 14.8 nM
12 | CCO[C@@H]1C[C@H]2C(=O)NC3(CCC3)C(=O)N(C)[C@@H](C3CCCC3)C(=O)N(C)[C@H](C(=O)N(C)C)CC(=O)N(C)[C@@H](CC(C)C)C(=O)N[C@@H]([C@@H](C)CC)C(=O)N(C)CC(=O)N(C)[C@H]3C/C=C\CCN(C3=O)[C@@H](Cc3ccc(F)cc3)C(=O)N(C)CC(=O)N[C@@H](CCc3ccc(Cl)c(Cl)c3)C(=O)N2C1 [PP1482] | A (a compound having 10 or more and less than 20 is denoted as A) | B (a compound having 3 or more and less than 10 is denoted as B) | 76.4 nM
13 | CCO[C@@H]1C[C@H]2C(=O)NC3(CCC3)C(=O)N(C)[C@@H](C3CCCC3)C(=O)N(C)[C@H](C(=O)N(C)C)CC(=O)N(C)[C@@H](CC(C)C)C(=O)N[C@@H]([C@@H](C)CC)C(=O)N(C)CC(=O)N(C)[C@H]3C/C=C\CCN(C3=O)[C@@H](Cc3ccc(F)cc3)C(=O)N(C)CC(=O)N[C@@H](CCc3cc(F)c(Cl)c(F)c3)C(=O)N2C1 [PP1483] | A (a compound having 10 or more and less than 20 is denoted as A) | B (a compound having 3 or more and less than 10 is denoted as B) | 90.3 nM
14 | CCO[C@@H]1C[C@H]2C(=O)NC3(CCC3)C(=O)N(C)[C@@H](C3CCCC3)C(=O)N(C)[C@H](C(=O)N(C)C)CC(=O)N(C)[C@@H](CC3CC3)C(=O)N[C@@H]([C@@H](C)CC)C(=O)N(C)CC(=O)N(C)[C@H]3C/C=C\CCN(C3=O)[C@@H](Cc3ccc(C)cc3)C(=O)N(C)CC(=O)N[C@@H](CCc3cc(F)c(Cl)c(F)c3)C(=O)N2C1 [PP1484] | A (a compound having 10 or more and less than 20 is denoted as A) | A (a compound having 10 or more and less than 20 is denoted as A) | 59.3 nM
15 | CCO[C@@H]1C[C@H]2C(=O)NC3(CCC3)C(=O)N(C)[C@@H](C3CCCC3)C(=O)N(C)[C@H](C(=O)N(C)C)CC(=O)N(C)[C@@H](CC3CC3)C(=O)N[C@@H]([C@@H](C)CC)C(=O)N(C)CC(=O)N(C)[C@H]3C/C=C\CCN(C3=O)[C@@H](Cc3ccc(C)cc3)C(=O)N(C)CC(=O)N[C@@H](CCc3ccc(Cl)c(Cl)c3)C(=O)N2C1 [PP1485] | A (a compound having 10 or more and less than 20 is denoted as A) | A (a compound having 10 or more and less than 20 is denoted as A) | 30.5 nM
16 | CCO[C@@H]1C[C@H]2C(=O)NC3(CCC3)C(=O)N(C)[C@@H](C3CCCC3)C(=O)N(C)[C@H](C(=O)N(C)C)CC(=O)N(C)[C@@H](CC3CCCC3)C(=O)N[C@@H]([C@@H](C)CC)C(=O)N(C)CC(=O)N(C)[C@H]3C/C=C\CCN(C3=O)[C@@H](Cc3ccc(C)cc3)C(=O)N(C)CC(=O)N[C@@H](CCc3cc(F)c(Cl)c(F)c3)C(=O)N2C1 [PP1486] | A (a compound having 10 or more and less than 20 is denoted as A) | A (a compound having 10 or more and less than 20 is denoted as A) | 15 nM
